Measured values published in BigSolDB 2.1.

O=C(O)CC(O)C(=O)O (stereo unspecified)
solubility (mole fraction)
Conditions | 298.15 K | 303.15 K | 308.15 K | 313.15 K | 318.15 K | 323.15 K | 328.15 K | 333.15 K
in ethanol | 0.109 | 0.12 | 0.136 | 0.148 | 0.165 | 0.184 | 0.207 | 0.227
in water | 0.15 | 0.161 | 0.178 | 0.196 | 0.213 | 0.229 | 0.249 | 0.271
